Read-outs that look alike come from different tables or passages of the source.

The source of these data is patent publication US4390547A, “2,2-Dimethyl-3-(substituted ethyl)cyclopropane carboxylate pesticidal compositions and methods” (priority 1981, dated 1983).

Data set [1] relates to houseflies (Musca domestica). Put plainly: Mortality test against houseflies by the settling mist method (Utility Examples 2 and 3). In kind it is in vivo. As to conditions: cis/trans 50/50, 24 hours. How it is done:
0.2 part of each of Compounds (1) to (38) was prepared and 0.8 part of piperonyl butoxide was added to each of them. To this mixture was added a sufficient amount of kerosene to make 100 parts, followed by stirring. By this procedure there was obtained an oil preparation of each Compound.
To 0.1 part of each of Compounds (1) to (38) was added 0.08 part of permethrin, followed by the addition of a sufficient amount of kerosene to make 100 parts. The mixture was stirred to obtain an oil preparation of each compound.
By the settling mist method, a mortality test against houseflies, (Musca domestica) was carried out using the oil preparations obtained according to Formulation Example 1 from Compounds (1), (5), (7), (9), (11) and (15) [Each compound is a mixture of cis- and trans-isomer in a ratio 50/50]. After 24 hours, the flies were examined for deaths. The mortality (%) was not less than 90% for each of Compounds (1), (5), (7), (9), (11) and (15).
By the settling mist method, a mortality test against houseflies was carried out using the oil preparations obtained in Formulation Example 3 from Compounds (1), (5), (7), (9), (11), (12), (15), (17) and (28) [Each compound is a mixture of cis- and trans-isomer in a ratio 50/50]. After 24 hours, the flies were examined for deaths. The mortality (%) was not less than 90% for each of Compounds (1), (5), (7), (9), (11), (12), (15), (17) and (28).

Data set [2] can be described thus: Light stability test (Test Example 3). In kind it is physicochemical. As to conditions: glass plate, uv light. How it is done:
Into 2.0 ml of acetone were dissolved 80 mg of each test compound. A 5 μl portion of the solution was taken and spread on a glass plate (Micro Standard Cover Glass, 18 m/m No. 1, 200 pcs, Matsunami Glass Ind., Ltd.) and the acetone was evaporated. The specimen was exposed to ultraviolet light from a fluorescent lamp (Tokyo Shibaura Electric Co., Ltd., FL20BL, glow-type, 100 V, 24.5 W, wavelength=3600 A) which was fixed just above the specimen at a distance of 11 cm at a temperature of 31°-35° C. for a predetermined exposure time. The test liquid was washed away with 1.0 ml of methanol containing 0.04% of dioctyl phthalate as an internal reference and high-speed liquid chromatography was carried out on the washings to determine the residual amount of the test compound.

The next data set relates to guppies. Description: Fish toxicity test (Test Example 4). In kind it is in vivo. Conditions: concentration killing 50% of female guppies during 48 hours, 20° C.; [Mixture] = cis/trans 50/50. How it is done: The mixture was stirred well to prepare a test water. Ten female guppies from 3 to 4 months of age were released into the test water and maintained at 20° C. The concentration of the test compound at which 50% of the guppies were killed during the ensuring 48 hours was determined. [This concentration is referred to as TLm (medium tolerance limit, ppm)].
A rank corresponds to TLm of not less than 10 ppm.
B rank corresponds to TLm of 0.5-10 ppm.
C rank corresponds to TLm of not more than 0.5 ppm.

A further data set deals with green rice leafhoppers. Description: Mortality of green rice leafhoppers on sprayed rice seedlings (Utility Example 1). As to conditions: green rice leafhopper, in vivo, 24 h. How it is done:
To 30 parts of each of Compounds (1) to (38) were added 50 parts of xylene and 20 parts of Sorpol SM-200 (a surfactant, trademark of Toho Chemical Co., Ltd.). The mixture was stirred well and dissolved to obtain a 30% emulsifiable concentrate.
The emulsifiable concentrate prepared from Compounds (7), (11), (12), (15), (17), (21) and (22) [Each compound is a mixture of cis- and trans-isomer in a ratio of 50/50] in Formulation Example 5 were each diluted 300-fold with water. Then, each of the dilutions was sprayed over rice seedlings 25 days after sowing at the rate of 10 ml/pot. The pot was covered with a wire net and 15 green rice leafhoppers were released under the net. After 24 hours, the leafhoppers were examined for deaths. The mortality (%) was not less than 90% for each of Compounds (7), (11), (12), (15), (17), (21) and (22).

The test system of data set [3] is housefly (Musca domestica). Description: Mortality test against houseflies by topical application (Test Example 1). In kind it is in vivo. As to conditions: 24 h. How it is done:
Each test compound was accurately weighed and a 1% solution and an 0.1% solution of the sample in acetone were prepared. A 1 μl portion of either of the above solutions was micropipetted onto the thoracic dorsal part of each female adult housefly (Musca domestica) under ether anaesthesia and the fly was released in a high-walled dish together with feed. The dish was covered with a metal-wire net and maintained at 25° C. After 24 hours, the test flies were inspected for deaths and the mortality (%) was calculated. Thirty test flies were used per concentration group.

[4] abbreviates: oil preparation of Formulation Example 1 (0.2 part compound + 0.8 part piperonyl butoxide).
[5] abbreviates: oil preparation of Formulation Example 3 (0.1 part compound + 0.08 part permethrin).
Where [6] appears, read: exposure time 3.5 hours, ultraviolet light 3600 A, 31°-35° C., [Mixture] = cis/trans 50/50, read-out: Residue (%).
Setting [7] is: exposure time 3 days, ultraviolet light 3600 A, 31°-35° C., [Mixture] = cis/trans 50/50, read-out: Residue (%).

As for `CC(Cl)(Cl)CC1C(C(=O)OC(C#N)c2cccc(Oc3ccccc3)c2)C1(C)C` (stereo not drawn) [Compound (9), 3-Phenoxy-α-cyanobenzyl 2,2-dimethyl-3-(2,2-dichloropropyl)cyclopropanecarboxylate], the “mortality (%)” value in data set [1] (setting [4]) and in data set [1] (setting [5]) was “not less than 90%” throughout.
In data set [2], `CC1(C)C(CC(Cl)(Cl)Cl)C1C(=O)OCc1coc(Cc2ccccc2)c1` (stereo not shown) [(28) [Mixture], 5-Benzyl-3-furylmethyl 2,2-dimethyl-3-(2,2,2-trichloroethyl)cyclopropanecarboxylate] returned a remaining at 3.5 h of 5% and a remaining at 72 h of 0%.
As to `CC1(C)C(C=C(Cl)Cl)C1C(=O)OCc1cccc(Oc2ccccc2)c1` (mixture of isomers) [Permethrin, 3-phenoxybenzyl(+)-cis,trans-2,2-dimethyl-3-(2,2-dichlorovinyl)cyclopropanecarboxylate, reference compound], the “TLm (medium tolerance limit)” value with guppies is given as “C (C rank corresponds to TLm of not more than 0.5 ppm.)”.
In data set [2], `CC1(C)[C@H](C(=O)OCc2cccc(Oc3ccccc3)c2)[C@@H]1CC(Cl)(Cl)Cl` (relative stereo) [(1) [Cis-isomer], 3-Phenoxybenzyl 2,2-dimethyl-3-(2,2,2-trichloroethyl)cyclopropanecarboxylate] yielded a remaining at 3.5 h of 97%, a remaining at 72 h of 91% and a remaining at 120 h of 85%.
In data set [2], `CC1(C)C(CC(Cl)(Cl)Cl)C1C(=O)OCN1C(=O)C2=C(CCCC2)C1=O` (stereo not shown) [(37) [Mixture], 3,4,5,6-Tetrahydrophthalimidomethyl 2,2-dimethyl-3-(2,2,2-trichloroethyl)cyclopropanecarboxylate] gave a remaining at 3.5 h of 16% and a remaining at 72 h of 0%.
On to `C#CC(OC(=O)C1C(CC(Cl)(Cl)Cl)C1(C)C)c1cccc(Oc2ccc(Cl)cc2)c1` (stereo not drawn) [(21) [Mixture], 3-(4-Chlorophenoxy)-α-ethynylbenzyl 2,2-dimethyl-3-(2,2,2-trichloroethyl)cyclopropanecarboxylate], for which, in data set [2], the remaining at 3.5 h was determined as 100%, the remaining at 72 h was found to be 78% and the remaining at 120 h came to 56%.
As for `CC1(C)C(CC(Cl)(Cl)Cl)C1C(=O)OC(C#N)c1cccc(Oc2ccccc2)c1` (stereo not drawn) [(7) [Mixture], 3-Phenoxy-α-cyanobenzyl 2,2-dimethyl-3-(2,2,2-trichloroethyl)cyclopropanecarboxylate], in data set [2], the remaining at 3.5 h is 100%, the remaining at 72 h turned out to be 84% and the remaining at 120 h is 75%.
As to `CC1(C)C(CC(Cl)(Cl)Cl)C1C(=O)OC(C#N)c1cccc(Oc2ccc(Br)cc2)c1` (stereo not drawn) [(17), 3-(4-Bromophenoxy)-α-cyanobenzyl 2,2-dimethyl-3-(2,2,2-trichloroethyl)cyclopropanecarboxylate], in data set [1] (setting [5]), the “mortality (%)” value is on record as “not less than 90%”.
Turning to `C#CC(OC(=O)C1C(CC(Br)(Br)Br)C1(C)C)c1cccc(Oc2ccccc2)c1` (stereo not drawn) [Compound (12), 3-Phenoxy-α-ethylnylbenzyl 2,2-dimethyl-3-(2,2,2-tribromoethyl)cyclopropanecarboxylate], the “mortality (%)” value with green rice leafhoppers is “not less than 90%”.
Consider `CC1(C)[C@H](C(=O)OC(C(N)=S)c2cccc(Oc3ccccc3)c2)[C@@H]1CC(Cl)(Cl)Cl` (stereo partly drawn) [(27) [Cis-isomer], 3-Phenoxy-α-thiocarbamoylbenzyl 2,2-dimethyl-3-(2,2,2-trichloroethyl)cyclopropanecarboxylate], for which the “TLm (medium tolerance limit)” value in the data set with guppies was “A (A rank corresponds to TLm of not less than 10 ppm.)”.
Turning to `CC1(C)C(CC(Cl)(Cl)Cl)C1C(=O)OC(C#N)c1cccc(OC=C(Cl)Cl)c1` (stereo not drawn) [(34) [Mixture], 3-(2,2-dichlorovinyloxy)-α-cyanobenzyl 2,2-dimethyl-3-(2,2,2-trichloroethyl)cyclopropanecarboxylate], the remaining at 3.5 h in data set [2] (setting [6]) was 100%. For the same molecule, in data set [2] (setting [7]), the remaining at 72 h worked out at 88%. In data set [2] (exposure time 5 days, ultraviolet light 3600 A, 31°-35° C., [Mixture] = cis/trans 50/50, read-out: Residue (%)), the remaining at 120 h was 44%.
For the molecule `CC1(C)[C@H](CC(Cl)(Cl)Cl)[C@H]1C(=O)OC(C#N)c1cccc(Oc2ccccc2)c1` (relative stereo) [(7) [Trans-isomer], 3-Phenoxy-α-cyanobenzyl 2,2-dimethyl-3-(2,2,2-trichloroethyl)cyclopropanecarboxylate], in data set [3], the mortality at 1 µg/fly came out at 96.7% and the mortality at 10 µg/fly turned out to be 100%.
`C=CCC1=C(C)C(OC(=O)C2C(CC(Cl)(Cl)Cl)C2(C)C)CC1=O` (stereo not shown) [(38) [Mixture], Allethronyl 2,2-dimethyl-3-(2,2,2-trichloroethyl)cyclopropanecarboxylate]: in data set [2], the remaining at 3.5 h was 21% and the remaining at 72 h is 0%.
For `CC(Cl)(Cl)CC1C(C(=O)OCc2cccc(Oc3ccccc3)c2)C1(C)C` (stereo not shown) [Compound (5), 3-Phenoxybenzyl 2,2-dimethyl-3-(2,2-dichloropropyl)cyclopropanecarboxylate], the “mortality (%)” value in data set [1] (setting [4]) and in data set [1] (setting [5]) was “not less than 90%” each time.
Take `CC1(C)C(CC(Cl)(Cl)Cl)C1C(=O)OCc1coc(Cc2ccccc2)c1` (stereo not shown) [(28), 5-Benzyl-3-furylmethyl 2,2-dimethyl-3-(2,2,2-trichloroethyl)cyclopropanecarboxylate]: in data set [1] (setting [5]), the “mortality (%)” value was “not less than 90%”.
In the case of `C#CC(OC(=O)C1C(CC(Cl)(Cl)Cl)C1(C)C)c1cccc(Oc2ccc(Cl)cc2)c1` (stereo not drawn) [(21), 3-(4-Chlorophenoxy)-α-ethynylbenzyl 2,2-dimethyl-3-(2,2,2-trichloroethyl)cyclopropanecarboxylate], in the data set with green rice leafhoppers, the “mortality (%)” value is given as “not less than 90%”.
Take `C#CC(OC(=O)C1C(CC(Cl)(Cl)Cl)C1(C)C)c1cccc(Oc2ccccc2)c1` (stereo not drawn) [(11) [Mixture], 3-Phenoxy-α-ethynylbenzyl 2,2-dimethyl-3-(2,2,2-trichloroethyl)cyclopropanecarboxylate]: in data set [2], the remaining at 3.5 h worked out at 100%, the remaining at 72 h was determined as 71% and the remaining at 120 h amounted to 65%.
As for `C=CCC1=C(C)C(OC(=O)C2C(C=C(C)C)C2(C)C)CC1=O` (stereo not shown) [Allethrin, allethrin, reference compound], in data set [2] (setting [6]), the remaining at 3.5 h was determined as 14%. Also, the remaining at 72 h in data set [2] (setting [7]) is 0%.
Take `CC1(C)C(CC(Cl)(Cl)Cl)C1C(=O)OCc1cccc(Oc2ccccc2)c1` (stereo not shown) [(1), 3-Phenoxybenzyl 2,2-dimethyl-3-(2,2,2-trichloroethyl)cyclopropanecarboxylate]: the “mortality (%)” value in data set [1] (setting [4]) and in data set [1] (setting [5]) was “not less than 90%” each time.
As for `CC1(C)C(CC(Cl)(Cl)Cl)C1C(=O)OC(C#N)c1cccc(Oc2ccc(Cl)cc2)c1` (stereo not drawn) [(15) [Mixture], 3-(4-Chlorophenoxy)-α-cyanobenzyl 2,2-dimethyl-3-(2,2,2-trichloroethyl)cyclopropanecarboxylate], in data set [2], the remaining at 3.5 h is 100%, the remaining at 72 h was 93% and the remaining at 120 h came to 96%.
